The structures appear in SMILES notation.

The term IC50 denotes the concentration at which inhibition is half-maximal.

Assay [1] deals with T1, rat TRPV1 (Rattus norvegicus, UniProt O35433).
T1 construct: expressed in transfected cells; host or cells: HEK293
Description: Block of capsaicin-induced Ca2+ influx, rat assay (rTRPV1/HEK293, FLIPR). The assay is classed as cell-based. To be noted: HEK293 cells transfected with rat TRPV1; capsaicin challenge; mean; > value = solubility limit in assay medium; read-out: Rat IC50. The method, then: (§1) HEK293 cells were transfected with human TRPV1 cloned in pcDNA3.1zeo(+) using the Effectene non-liposomal lipid based transfection kit (Qiagen) (hTRPV1/HEK293). hTRPV1/HEK293 cells were routinely grown as monolayers under selection in zeocin (200 μg/mL; Invitrogen) in Dulbecco's Modified Eagle Medium (DMEM, Gibco BRL) supplemented with 10% fetal bovine serum, and penicillin/streptomycin (50 units/mL) in 5% CO2 at 37° C. Cells were passaged frequently, every 3-5 days, to avoid overgrowth, depletion of essential medium components, or acidic medium exposure. Cells were passaged using a brief wash in 0.05% trypsin with 1 mM EDTA, followed by dissociation in divalent-free phosphate-buffered saline (Hyclone #SH30028.02). […] The assay buffer was composed of 130 mM NaCl, 2 mM KCl, 2 mM MgCl2, 10 mM HEPES, 5 mM glucose, and either 2 mM or 20 μM CaCl2. On the day of the experiment, the culture medium was replaced with 2 mM calcium assay buffer using an automated plate washer (ELx405; Biotek, VT). […] After loading the cells, the dye solution was replaced with 50 μL/well of 20 μM calcium assay buffer using the ELx405 plate washer. Test compounds (50 μL/well) were added to the plate and incubated for 30 min. Intracellular Ca^2+ levels were subsequently assayed using a Fluorometric Imaging Plate Reader (FLIPR™ instrument, Molecular Devices, CA) to simultaneously monitor Fluo-3 fluorescence in all wells (λexcitation=488 nm, λemission=540 nm) during challenge with agonist (capsaicin). The IC50 values were determined. […] The contents of the wells were mixed 3 times (40 μL mix volume) immediately after the additions were made. Concentration-dependence of block was determined by exposing each well of cells in duplicate rows of a 96-well plate to a serial dilution of test compound. The concentration series usually started at 10 μM with a three-fold serial decrement in concentration. The magnitude of the capsaicin response was determined by measuring the change in fluo3 fluorescence before and 100 seconds after the addition of the agonist. Data were analyzed using a non-linear regression program (Origin; OriginLab, MA).
This assay was performed similarly to the human assay described above, but using HEK293 cells transfected with rat TRPV1 (rTRPV1/HEK293).
(§2) IC50 values shown are the average (mean) of the results obtained. […] Compounds were tested as in the free base, trifluoroacetic acid salt, or hydrochloride salt form.

Assay [2] addresses T2, human TRPV1 (Homo sapiens, UniProt Q8NER1).
T2 construct: expressed in transfected cells; host or cells: HEK293
Description: Block of capsaicin-induced Ca2+ influx, human assay (hTRPV1/HEK293, FLIPR). The following applies: HEK293 cells transfected with human TRPV1; 150 nM capsaicin challenge; mean; > value = solubility limit in assay medium. The format is cell-based. The method, then:
as §1, §2

T1 sequence (O35433 whole entry): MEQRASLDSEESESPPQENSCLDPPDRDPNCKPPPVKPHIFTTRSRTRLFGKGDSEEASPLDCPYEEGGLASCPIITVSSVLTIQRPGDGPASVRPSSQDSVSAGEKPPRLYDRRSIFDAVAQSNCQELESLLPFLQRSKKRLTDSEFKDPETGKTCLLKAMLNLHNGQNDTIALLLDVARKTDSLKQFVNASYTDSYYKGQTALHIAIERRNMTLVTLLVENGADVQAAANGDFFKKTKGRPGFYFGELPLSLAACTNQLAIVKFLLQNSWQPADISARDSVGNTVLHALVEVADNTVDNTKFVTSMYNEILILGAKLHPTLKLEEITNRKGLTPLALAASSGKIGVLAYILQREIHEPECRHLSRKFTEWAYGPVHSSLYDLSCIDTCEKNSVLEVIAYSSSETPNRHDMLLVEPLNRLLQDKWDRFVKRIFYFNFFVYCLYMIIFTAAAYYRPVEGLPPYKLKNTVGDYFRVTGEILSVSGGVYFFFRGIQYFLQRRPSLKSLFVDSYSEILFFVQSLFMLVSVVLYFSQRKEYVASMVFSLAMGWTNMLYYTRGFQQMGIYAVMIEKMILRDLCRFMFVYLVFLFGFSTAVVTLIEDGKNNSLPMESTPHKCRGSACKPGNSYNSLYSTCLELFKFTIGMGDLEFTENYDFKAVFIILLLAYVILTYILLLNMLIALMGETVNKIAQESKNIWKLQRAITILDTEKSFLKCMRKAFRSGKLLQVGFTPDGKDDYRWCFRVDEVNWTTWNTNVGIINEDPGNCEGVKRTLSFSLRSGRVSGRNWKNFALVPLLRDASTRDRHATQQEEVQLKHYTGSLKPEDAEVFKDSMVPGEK
T2 sequence (Q8NER1 whole entry): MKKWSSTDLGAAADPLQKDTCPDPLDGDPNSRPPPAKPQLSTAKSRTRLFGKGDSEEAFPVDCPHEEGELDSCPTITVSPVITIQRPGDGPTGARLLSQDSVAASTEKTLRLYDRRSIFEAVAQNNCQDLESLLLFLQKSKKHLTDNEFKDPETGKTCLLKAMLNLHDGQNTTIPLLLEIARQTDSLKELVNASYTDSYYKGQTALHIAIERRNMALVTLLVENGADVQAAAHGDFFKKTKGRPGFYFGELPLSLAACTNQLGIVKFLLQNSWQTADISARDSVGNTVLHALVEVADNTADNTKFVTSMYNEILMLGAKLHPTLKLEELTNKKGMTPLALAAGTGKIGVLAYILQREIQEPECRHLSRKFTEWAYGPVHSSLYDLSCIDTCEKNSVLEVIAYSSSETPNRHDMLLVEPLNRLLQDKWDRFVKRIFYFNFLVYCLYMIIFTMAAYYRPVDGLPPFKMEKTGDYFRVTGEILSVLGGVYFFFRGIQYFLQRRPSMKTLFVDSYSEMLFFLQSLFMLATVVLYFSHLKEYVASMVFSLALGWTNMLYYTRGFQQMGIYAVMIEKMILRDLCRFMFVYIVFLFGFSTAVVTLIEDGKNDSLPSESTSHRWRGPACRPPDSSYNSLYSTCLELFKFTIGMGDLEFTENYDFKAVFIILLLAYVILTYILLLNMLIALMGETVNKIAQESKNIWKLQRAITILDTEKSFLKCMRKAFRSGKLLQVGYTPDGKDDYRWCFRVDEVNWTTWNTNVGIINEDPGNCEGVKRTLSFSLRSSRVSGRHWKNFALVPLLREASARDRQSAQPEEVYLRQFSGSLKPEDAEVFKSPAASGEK

As for `FC(F)(F)c1ccc(Nc2ncnc3sc(Cc4c(Cl)cccc4Cl)nc23)cn1` [Example 8, [2-(2,6-Dichloro-benzyl)-thiazolo[5,4-d]pyrimidin-7-yl]-(6-trifluoromethyl-pyridin-3-yl)-amine], the concentration for half-maximal inhibition (IC50) in assay [1] stood at 55 nM; in assay [2], 30 nM.
For `FC(F)(F)c1ccc(Nc2ncnc3sc(Cc4c(Cl)cccc4Cl)nc23)cc1Cl` [Example 9, (3-Chloro-4-trifluoromethyl-phenyl)-[2-(2,6-dichloro-benzyl)-thiazolo[5,4-d]pyrimidin-7-yl]-amine] the same measures were 74 nM and 40 nM.
For `CS(=O)(=O)c1ccc(Nc2ncnc3sc(Cc4c(Cl)cccc4Cl)nc23)cc1` [Example 13, [2-(2,6-Dichloro-benzyl)-thiazolo[5,4-d]pyrimidin-7-yl]-(4-methanesulfonyl-phenyl)-amine] the same measures were 57 nM and 190 nM.
Taken in the same sequence, the figures for `O=S(=O)(c1ccc(Nc2ncnc3sc(Cc4c(Cl)cccc4Cl)nc23)cc1)C(F)(F)F` [Example 14] were 68 nM and 34 nM.
For `O=S(=O)(c1ccc(Nc2ncnc3sc(Cc4c(Cl)cccc4Cl)nc23)cc1)N1CCOCC1` [Example 15, [2-(2,6-Dichloro-benzyl)-thiazolo[5,4-d]pyrimidin-7-yl]-[4-(morpholine-4-sulfonyl)-phenyl]-amine], the IC50 stood at 54 nM in assay [1] and 33 nM in assay [2].
Taken in the same sequence, the figures for `CN1CCN(S(=O)(=O)c2ccc(Nc3ncnc4sc(Cc5c(Cl)cccc5Cl)nc34)cc2)CC1` [Example 16, [2-(2,6-Dichloro-benzyl)-thiazolo[5,4-d]pyrimidin-7-yl]-[4-(4-methyl-piperazine-1-sulfonyl)-phenyl]-amine] were 1090 nM and 416 nM.
On to `Cc1ccccc1Cc1nc2c(Nc3ccc(C(F)(F)F)cc3)ncnc2s1` [Example 17, 2-(2-Methylbenzyl)-N-[4-(trifluoromethyl)phenyl][1,3]thiazolo[5,4-d]pyrimidin-7-amine], for which the results for the IC50 in assay [1] and in assay [2] were 146 nM and 147 nM, respectively.
As for `Cc1ccccc1Cc1nc2c(Nc3ccc(C(F)(F)F)nc3)ncnc2s1` [Example 18, 2-(2-Methylbenzyl)-N-[6-(trifluoromethyl)pyridin-3-yl][1,3]thiazolo[5,4-d]pyrimidin-7-amine], the IC50 in assay [1] was 154 nM; in assay [2], 85 nM.
For `Cc1ccccc1Cc1nc2c(Nc3ccc(S(C)(=O)=O)cc3)ncnc2s1` [Example 19, 2-(2-Methylbenzyl)-N-[4-(methylsulfonyl)phenyl][1,3]thiazolo[5,4-d]pyrimidin-7-amine], the IC50 worked out at 247 nM in assay [1] and 471 nM in assay [2].
For `FC(F)(F)c1ccc(Nc2ncnc3sc(Cc4ccccc4Cl)nc23)cc1` [Example 20, 2-(2-Chlorobenzyl)-N-[4-(trifluoromethyl)phenyl][1,3]thiazolo[5,4-d]pyrimidin-7-amine] the same measures were 32 nM and 40 nM.
Consider `FC(F)(F)c1ccc(Nc2ncnc3sc(Cc4ccccc4Cl)nc23)cn1` [Example 21, 2-(2-Chlorobenzyl)-N-[6-(trifluoromethyl)pyridin-3-yl][1,3]thiazolo[5,4-d]pyrimidin-7-amine], for which the results for the half-inhibitory concentration (IC50) in assay [1] and in assay [2] were 54 nM and 79 nM, respectively.
With `CS(=O)(=O)c1ccc(Nc2ncnc3sc(Cc4ccccc4Cl)nc23)cc1` [Example 22, 2-(2-Chlorobenzyl)-N-[4-(methylsulfonyl)phenyl][1,3]thiazolo[5,4-d]pyrimidin-7-amine], the half-inhibitory concentration (IC50) in assay [1] was found to be 33 nM; in assay [2] it was 280 nM.
Taken in the same sequence, the figures for `FC(F)(F)c1ccccc1Nc1ncnc2sc(Cc3c(Cl)cccc3Cl)nc12` [Example 23, 2-(2,6-Dichlorobenzyl)-N-[2-(trifluoromethyl)phenyl][1,3]thiazolo[5,4-d]pyrimidin-7-amine] were 1790 nM and more than 6670 nM.
Taken in the same sequence, the figures for `FC(F)(F)c1cccc(Nc2ncnc3sc(Cc4c(Cl)cccc4Cl)nc23)c1` [Example 24, 2-(2,6-Dichlorobenzyl)-N-[3-(trifluoromethyl)phenyl][1,3]thiazolo[5,4-d]pyrimidin-7-amine] were 196 nM and 840 nM.
Taken in the same sequence, the figures for `CC(C)(C)c1ccc(Nc2ncnc3sc(Cc4c(Cl)cccc4Cl)nc23)cc1` [Example 25, N-(4-tert-Butylphenyl)-2-(2,6-dichlorobenzyl)[1,3]thiazolo[5,4-d]pyrimidin-7-amine] were 11 nM and 54 nM.
Regarding `FC(F)(F)c1ccc(Nc2ncnc3sc(Cc4ccccc4)nc23)cc1` [Example 32, 2-Benzyl-N-[4-(trifluoromethyl)phenyl][1,3]thiazolo[5,4-d]pyrimidin-7-amine], the IC50 in assay [1] worked out at 55 nM; in assay [2], 2920 nM.
As for `FC(F)(F)c1ccc(Nc2ncnc3sc(Cc4ccccc4)nc23)cn1` [Example 33, 2-Benzyl-N-[6-(trifluoromethyl)pyridin-3-yl][1,3]thiazolo[5,4-d]pyrimidin-7-amine], the half-inhibitory concentration (IC50) in assay [1] was 111 nM; in assay [2], 813 nM.
For `CS(=O)(=O)c1ccc(Nc2ncnc3sc(Cc4ccccc4)nc23)cc1` [Example 34, 2-Benzyl-N-[4-(methylsulfonyl)phenyl][1,3]thiazolo[5,4-d]pyrimidin-7-amine] the same measures were 1460 nM and 3310 nM.
`FC(F)(F)c1ccc(Nc2ncnc3sc(Cc4ccc(Cl)cc4)nc23)cc1` [Example 35, 2-(4-Chlorobenzyl)-N-[4-(trifluoromethyl)phenyl][1,3]thiazolo[5,4-d]pyrimidin-7-amine]: the IC50 was 42 nM in assay [1] and 988 nM in assay [2].
`FC(F)(F)c1ccc(Nc2ncnc3sc(Cc4ccc(Cl)cc4)nc23)cn1` [Example 36, 2-(4-Chlorobenzyl)-N-[6-(trifluoromethyl)pyridin-3-yl][1,3]thiazolo[5,4-d]pyrimidin-7-amine]: the values for the IC50 in assay [1] and in assay [2] were 80 nM and 2300 nM, respectively.
For `COc1ccc(Nc2ncnc3sc(Cc4c(Cl)cccc4Cl)nc23)cc1` [Example 37, 2-(2,6-Dichlorobenzyl)-N-(4-methoxyphenyl)[1,3]thiazolo[5,4-d]pyrimidin-7-amine] the same measures were 241 nM and 328 nM.
Taken in the same sequence, the figures for `Fc1ccc(Nc2ncnc3sc(Cc4c(Cl)cccc4Cl)nc23)cc1` [Example 39, 2-(2,6-Dichlorobenzyl)-N-(4-fluorophenyl)[1,3]thiazolo[5,4-d]pyrimidin-7-amine] were 189 nM and 225 nM.
Regarding `Clc1ccc(Nc2ncnc3sc(Cc4c(Cl)cccc4Cl)nc23)cc1` [Example 40, N-(4-Chlorophenyl)-2-(2,6-dichlorobenzyl)[1,3]thiazolo[5,4-d]pyrimidin-7-amine], the IC50 amounted to 51 nM in assay [1] and 49 nM in assay [2].
For `Clc1cccc(Cl)c1Cc1nc2c(Nc3ccc(Br)cc3)ncnc2s1` [Example 41, N-(4-Bromophenyl)-2-(2,6-dichlorobenzyl)[1,3]thiazolo[5,4-d]pyrimidin-7-amine] the same measures were 29 nM and 32 nM.
Taken in the same sequence, the figures for `CC(C)(C#N)c1ccc(Nc2ncnc3sc(Cc4c(Cl)cccc4Cl)nc23)cc1` [Example 42, 2-(4-{[2-(2,6-Dichlorobenzyl)[1,3]thiazolo[5,4-d]pyrimidin-7-yl]amino}phenyl)-2-methylpropanenitrile] were 56 nM and 99 nM.
Regarding `Clc1cccc(Cl)c1Cc1nc2c(Nc3ccccc3)ncnc2s1` [Example 43, 2-(2,6-Dichlorobenzyl)-N-phenyl[1,3]thiazolo[5,4-d]pyrimidin-7-amine], the values for the 50% inhibitory concentration (IC50) in assay [1] and in assay [2] were 167 nM and 269 nM, respectively.
Taken in the same sequence, the figures for `FC(F)(F)Oc1ccc(Nc2ncnc3sc(Cc4c(Cl)cccc4Cl)nc23)cc1` [Example 44, 2-(2,6-Dichlorobenzyl)-N-[4-(trifluoromethoxy)phenyl][1,3]thiazolo[5,4-d]pyrimidin-7-amine] were 44 nM and 193 nM.
For `CS(=O)(=O)c1ccc(Nc2ncnc3sc(Cc4c(Cl)cccc4Cl)nc23)cc1F` [Example 45, 2-(2,6-Dichlorobenzyl)-N-[3-fluoro-4-(methylsulfonyl)phenyl][1,3]thiazolo[5,4-d]pyrimidin-7-amine] the same measures were 183 nM and 274 nM.

These data come from patent US9440978B2, “Imidazolo-, oxazolo-, and thiazolopyrimidine modulators of TRPV1” (Janssen Pharmaceutica NV, priority 2007, dated 2016).
